Measurements from PMC12108457, “Trimethylamine N-Oxide (TMAO) Acts as Inhibitor of Endothelial Nitric Oxide Synthase (eNOS) and Hampers NO Production and Acetylcholine-Mediated Vasorelaxation in Rat Aortas” (Antioxidants, 2025).

Experiments:
Assay type in all cases: cell-based
[1] = target: T1, endothelial nitric oxide synthase (eNOS) (Homo sapiens, UniProt P29474); assay: NO production (DAF-FM) in HUVECs with L-arginine competition; deuterated L-arginine to L-citrulline conversion by MS
T1 construct: gene NOS3
T1 sequence (P29474 2-1203): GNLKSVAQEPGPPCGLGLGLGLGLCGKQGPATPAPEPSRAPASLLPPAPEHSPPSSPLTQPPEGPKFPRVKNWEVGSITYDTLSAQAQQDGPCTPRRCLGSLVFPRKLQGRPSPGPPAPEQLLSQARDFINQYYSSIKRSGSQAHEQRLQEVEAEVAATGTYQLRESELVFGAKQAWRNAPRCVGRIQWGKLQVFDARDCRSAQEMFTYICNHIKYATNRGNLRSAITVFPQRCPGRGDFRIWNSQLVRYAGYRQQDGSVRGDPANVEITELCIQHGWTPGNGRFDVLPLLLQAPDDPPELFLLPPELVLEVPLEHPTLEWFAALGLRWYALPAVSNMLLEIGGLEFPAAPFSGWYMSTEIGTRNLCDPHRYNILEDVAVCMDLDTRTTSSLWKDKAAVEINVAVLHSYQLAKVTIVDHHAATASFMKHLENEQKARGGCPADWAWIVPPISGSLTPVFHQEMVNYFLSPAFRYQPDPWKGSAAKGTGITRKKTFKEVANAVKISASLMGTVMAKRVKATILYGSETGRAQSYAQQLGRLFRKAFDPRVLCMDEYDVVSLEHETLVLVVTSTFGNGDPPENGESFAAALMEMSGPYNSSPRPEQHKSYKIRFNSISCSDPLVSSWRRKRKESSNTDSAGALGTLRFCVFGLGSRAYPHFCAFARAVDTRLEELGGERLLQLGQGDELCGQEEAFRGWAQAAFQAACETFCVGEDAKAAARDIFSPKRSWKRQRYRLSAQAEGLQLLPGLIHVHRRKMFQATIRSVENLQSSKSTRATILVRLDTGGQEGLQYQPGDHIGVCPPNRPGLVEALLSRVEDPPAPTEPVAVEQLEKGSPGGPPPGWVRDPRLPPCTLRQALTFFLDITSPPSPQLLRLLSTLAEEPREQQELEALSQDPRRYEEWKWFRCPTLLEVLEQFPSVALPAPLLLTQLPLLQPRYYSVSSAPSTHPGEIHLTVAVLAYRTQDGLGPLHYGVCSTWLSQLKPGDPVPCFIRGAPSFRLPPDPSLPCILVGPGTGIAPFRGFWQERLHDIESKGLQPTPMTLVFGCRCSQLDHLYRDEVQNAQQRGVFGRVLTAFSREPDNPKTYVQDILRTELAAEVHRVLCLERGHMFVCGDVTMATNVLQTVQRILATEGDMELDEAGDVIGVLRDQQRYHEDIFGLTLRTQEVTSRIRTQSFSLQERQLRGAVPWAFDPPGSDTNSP

[2] = target: T1, endothelial nitric oxide synthase (eNOS); assay: NO (DAF-FM) and ROS production in HUVECs at […] L-NAME
[3] = target: T1, endothelial nitric oxide synthase (eNOS); assay: conversion of deuterated L-arginine to L-citrulline in HUVECs by MS; […] L-arginine rescues NO production

## C[N+](C)(C)[O-] [Trimethylamine N-oxide]
[1]
  EC50: 2.5 ± 0.3 µM

## COC(=O)[C@@H](N)CCCNC(N)=N[N+](=O)[O-] [L-NAME]
[2]
  NO (DAF-FM) and ROS production in HUVECs at 1 mM L-NAME: NO production is indeed eNOS-dependent, as proven by the eNOS inhibitor L-NAME, whose presence strongly abolishes NO production

## N=C(N)NCCC[C@H](N)C(=O)O [L-arginine]
[3]
  conversion of deuterated L-arginine to L-citrulline in HUVECs by MS; 20 mM L-arg: we measured the rate of L-arginine’s conversion to L-citrulline by using stable isotope labeling and mass spectrometry
